The assay deals with T1, human PF4 (Homo sapiens, UniProt P02776).
T1 construct: PF4 is a 70 amino acid, lysine-rich 7.8 kDa platelet-specific protein; made in house; host or cells: Escherichia coli BL21DE3 pLysS (pT7-7) and/or Drosophila S2 cells
T1 sequence (P02776 32-101): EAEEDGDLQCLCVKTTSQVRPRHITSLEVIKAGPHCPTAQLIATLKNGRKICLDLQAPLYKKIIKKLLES
The assay can be described thus: Inhibition of PF4 tetramer formation (BS3 cross-linking, SDS-PAGE). The note with it: for inhibition at 1 µM: 1 μM inhibitor; for inhibition at 3 µM: 3 μM inhibitor (column A); for IC50: read-out: IC50 of PF4 tetramer formation inhibition. The assay is classed as biochemical. In a few lines:
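Monomer, dimer, trimer and tetramer fractions were quantified by densitometry after reducing 12% SDS-PAGE of BS3-cross-linked (0.2 mM, 30 min, room temperature) PF4. Before cross-linking, 10 μg/ml E. coli-expressed human WT PF4 in PBS was exposed to compound for 15 min at 37° C or 60 min at room temperature; controls lacked compound.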

Where [1] appears, read: read-out: % inhibition of PF4 tetramer formation at single concentration of inhibitor.

With `O=C(c1ccc2c(c1)C(=O)C(C(=O)CC1CCCC1=O)C2=O)c1ccc2c(c1)C(=O)C(C(=O)CC1CCCC1=O)C2=O` (stereo not drawn) [Example 261, 5-{1,3-dioxo-2-[2-(2-oxocyclopentyl)acetyl]-2,3-dihydro-1H-indene-5-carbonyl}-2-[2-(2-oxocyclopentyl)acetyl]-2,3-dihydro-1H-indene-1,3-dione], the IC50 (as a rule, the point on the concentration scale where inhibition reaches its midpoint) came out at 1.32 µM. Under setting [1], the inhibition at 1 µM stood at 67% and the inhibition at 3 µM came out at 77%.

Take `O=C1c2ccc(Oc3ccc4c(c3)C(=O)C(C(=O)[C@@H]3C[C@H]3C(=O)O)C4=O)cc2C(=O)C1C(=O)[C@@H]1C[C@H]1C(=O)O` (stereo partly drawn) [Example 262, (1R,2R)-2-({5-[(2-{[(1R,2R)-2-carboxycyclopropyl](hydroxy)methylidene}-1,3-dioxo-2,3-dihydro-1H-inden-5-yl)oxy]-1,3-dioxo-2,3-dihydro-1H-inden-2-ylidene}(hydroxy)methyl)cyclopropane-1-carboxylic acid]: the IC50 was 1.33 µM. Under setting [1], the inhibition at 1 µM turned out to be 49% and the inhibition at 3 µM came out at 67%.

Turning to `CN(CC(=O)C1C(=O)c2ccc(Oc3ccc4c(c3)C(=O)C(C(=O)CN(C)C(=O)OC(C)(C)C)C4=O)cc2C1=O)C(=O)OC(C)(C)C` (stereo not drawn) [Example 263, tert-butyl N-[2-(5-{[2-(2-{[(tert-butoxy)carbonyl](methyl)amino}acetyl)-1,3-dioxo-2,3-dihydro-1H-inden-5-yl]oxy}-1,3-dioxo-2,3-dihydro-1H-inden-2-yl)-2-oxoethyl]-N-methylcarbamate], the IC50 worked out at 2.07 µM. In addition, under setting [1], the inhibition at 1 µM amounted to 72% and the inhibition at 3 µM came to 69%.

For the molecule `CN(CC(=O)C1C(=O)c2ccc(C(=O)c3ccc4c(c3)C(=O)C(C(=O)CN(C)C(=O)OC(C)(C)C)C4=O)cc2C1=O)C(=O)OC(C)(C)C` (stereo not drawn) [Example 264, tert-butyl N-(2-{5-[2-(2-{[(tert-butoxy)carbonyl](methyl)amino}acetyl)-1,3-dioxo-2,3-dihydro-1H-indene-5-carbonyl]-1,3-dioxo-2,3-dihydro-1H-inden-2-yl}-2-oxoethyl)-N-methylcarbamate], the IC50 is 9.83 µM. For the same molecule, under setting [1], the inhibition at 1 µM worked out at 72% and the inhibition at 3 µM is 75%.

As for `CC(=O)NCCCC(=O)C1C(=O)c2ccc(Oc3ccc4c(c3)C(=O)C(C(=O)CCCNC(C)=O)C4=O)cc2C1=O` (stereo not drawn) [Example 265, N-[4-(5-{[2-(4-acetamidobutanoyl)-1,3-dioxo-2,3-dihydro-1H-inden-5-yl]oxy}-1,3-dioxo-2,3-dihydro-1H-inden-2-yl)-4-oxobutyl]acetamide], under setting [1], the inhibition at 1 µM amounted to 18% and the inhibition at 3 µM was 34%.

Turning to `CN1CCC(C(=O)C2C(=O)c3ccc(C(=O)c4ccc5c(c4)C(=O)C(C(=O)C4CCN(C)CC4)C5=O)cc3C2=O)CC1` (stereo not drawn) [Example 266, 2-(1-methylpiperidine-4-carbonyl)-5-[2-(1-methylpiperidine-4-carbonyl)-1,3-dioxo-2,3-dihydro-1H-indene-5-carbonyl]-2,3-dihydro-1H-indene-1,3-dione], the inhibition at 3 µM under setting [1] came to 25%.

Regarding `CC(C)(C)OC(=O)NCCC(=O)C1C(=O)c2ccc(Oc3ccc4c(c3)C(=O)C(C(=O)CCNC(=O)OC(C)(C)C)C4=O)cc2C1=O` (stereo not drawn) [Example 267, tert-butyl N-[3-(5-{[2-(3-{[(tert-butoxy)carbonyl]amino}propanoyl)-1,3-dioxo-2,3-dihydro-1H-inden-5-yl]oxy}-1,3-dioxo-2,3-dihydro-1H-inden-2-yl)-3-oxopropyl]carbamate], under “10 μM inhibitor (column A), read-out: % inhibition of PF4 tetramer formation at single concentration of inhibitor”, the inhibition at 10 µM turned out to be 100%.

Consider `CC(C)(C)OC(=O)NCCC(=O)C1C(=O)c2ccc(C(=O)c3ccc4c(c3)C(=O)C(C(=O)CCNC(=O)OC(C)(C)C)C4=O)cc2C1=O` (stereo not drawn) [Example 268, tert-butyl N-(3-{5-[2-(3-{[(tert-butoxy)carbonyl]amino}propanoyl)-1,3-dioxo-2,3-dihydro-1H-indene-5-carbonyl]-1,3-dioxo-2,3-dihydro-1H-inden-2-yl}-3-oxopropyl)carbamate], for which, under setting [1], the inhibition at 1 µM was found to be 7% and the inhibition at 3 µM was found to be 25%.

In the case of `CC(=O)NCCCC(=O)C1C(=O)c2ccc(C(=O)c3ccc4c(c3)C(=O)C(C(=O)CCCNC(C)=O)C4=O)cc2C1=O` (stereo not drawn) [Example 269, N-(4-{5-[2-(4-acetamidobutanoyl)-1,3-dioxo-2,3-dihydro-1H-indene-5-carbonyl]-1,3-dioxo-2,3-dihydro-1H-inden-2-yl}-4-oxobutyl)acetamide], under setting [1], the inhibition at 1 µM came out at 14% and the inhibition at 3 µM is 50%.

As for `CSCC[C@H](NC(=O)OC(C)(C)C)C(=O)C1C(=O)c2ccc(Oc3ccc4c(c3)C(=O)C(C(=O)[C@H](CCSC)NC(=O)OC(C)(C)C)C4=O)cc2C1=O` (stereo partly drawn) [Example 270, tert-butyl N-[(2S)-1-[5-({2-[(2S)-2-{[(tert-butoxy)carbonyl]amino}-4-(methylsulfanyl)butanoyl]-1,3-dioxo-2,3-dihydro-1H-inden-5-yl}oxy)-1,3-dioxo-2,3-dihydro-1H-inden-2-yl]-4-(methylsulfanyl)-1-oxobutan-2-yl]carbamate], under setting [1], the inhibition at 1 µM worked out at 10% and the inhibition at 3 µM was 24%.

`CSCC[C@H](NC(=O)OC(C)(C)C)C(=O)C1C(=O)c2ccc(C(=O)c3ccc4c(c3)C(=O)C(C(=O)[C@H](CCSC)NC(=O)OC(C)(C)C)C4=O)cc2C1=O` (stereo partly drawn) [Example 271, tert-butyl N-[(2S)-1-(5-{2-[(2S)-2-{[(tert-butoxy)carbonyl]amino}-4-(methylsulfanyl)butanoyl]-1,3-dioxo-2,3-dihydro-1H-indene-5-carbonyl}-1,3-dioxo-2,3-dihydro-1H-inden-2-yl)-4-(methylsulfanyl)-1-oxobutan-2-yl]carbamate]: under setting [1], the inhibition at 1 µM was 21% and the inhibition at 3 µM was found to be 38%.

Turning to `CC(C)(C)OC(=O)NCC(=O)C1C(=O)c2ccc(Oc3ccc4c(c3)C(=O)C(C(=O)CNC(=O)OC(C)(C)C)C4=O)cc2C1=O` (stereo not drawn) [Example 272, tert-butyl N-[2-(5-{[2-(2-{[(tert-butoxy)carbonyl]amino}acetyl)-1,3-dioxo-2,3-dihydro-1H-inden-5-yl]oxy}-1,3-dioxo-2,3-dihydro-1H-inden-2-yl)-2-oxoethyl]carbamate], under setting [1], the inhibition at 1 µM turned out to be 26% and the inhibition at 3 µM stood at 56%.

`CC(C)(C)OC(=O)N1CC[C@H]1C(=O)C1C(=O)c2ccc(Oc3ccc4c(c3)C(=O)C(C(=O)[C@@H]3CCN3C(=O)OC(C)(C)C)C4=O)cc2C1=O` (stereo partly drawn) [Example 273, tert-butyl (2S)-2-[5-({2-[(2S)-1-[(tert-butoxy)carbonyl]azetidine-2-carbonyl]-1,3-dioxo-2,3-dihydro-1H-inden-5-yl}oxy)-1,3-dioxo-2,3-dihydro-1H-indene-2-carbonyl]azetidine-1-carboxylate]: under setting [1], the inhibition at 1 µM is 20% and the inhibition at 3 µM worked out at 20%.

For the molecule `CC(C)(C)OC(=O)N1CCCC[C@@H]1C(=O)C1C(=O)c2ccc(Oc3ccc4c(c3)C(=O)C(C(=O)[C@H]3CCCCN3C(=O)OC(C)(C)C)C4=O)cc2C1=O` (stereo partly drawn) [Example 274, tert-butyl (2R)-2-[5-({2-[(2R)-1-[(tert-butoxy)carbonyl]piperidine-2-carbonyl]-1,3-dioxo-2,3-dihydro-1H-inden-5-yl}oxy)-1,3-dioxo-2,3-dihydro-1H-indene-2-carbonyl]piperidine-1-carboxylate], under setting [1], the inhibition at 1 µM worked out at 21% and the inhibition at 3 µM was 60%.

As for `CC(C)(C)OC(=O)N1CCCC[C@@H]1C(=O)C1C(=O)c2ccc(C(=O)c3ccc4c(c3)C(=O)C(C(=O)[C@H]3CCCCN3C(=O)OC(C)(C)C)C4=O)cc2C1=O` (stereo partly drawn) [Example 275, tert-butyl (2R)-2-(5-{2-[(2R)-1-[(tert-butoxy)carbonyl]piperidine-2-carbonyl]-1,3-dioxo-2,3-dihydro-1H-indene-5-carbonyl}-1,3-dioxo-2,3-dihydro-1H-indene-2-carbonyl)piperidine-1-carboxylate], the IC50 came out at 3 µM. Moreover, under setting [1], the inhibition at 1 µM was 5% and the inhibition at 3 µM amounted to 31%.

Regarding `CSCCC(=O)C1C(=O)c2ccc(Oc3ccc4c(c3)C(=O)C(C(=O)CCSC)C4=O)cc2C1=O` (stereo not drawn) [Example 276, 2-[3-(methylsulfanyl)propanoyl]-5-({2-[3-(methylsulfanyl)propanoyl]-1,3-dioxo-2,3-dihydro-1H-inden-5-yl}oxy)-2,3-dihydro-1H-indene-1,3-dione], the IC50 came out at 3 µM. In addition, under setting [1], the inhibition at 1 µM is 12% and the inhibition at 3 µM stood at 7%.

For `CSCCC(=O)C1C(=O)c2ccc(C(=O)c3ccc4c(c3)C(=O)C(C(=O)CCSC)C4=O)cc2C1=O` (stereo not drawn) [Example 277, 2-[3-(methylsulfanyl)propanoyl]-5-{2-[3-(methylsulfanyl)propanoyl]-1,3-dioxo-2,3-dihydro-1H-indene-5-carbonyl}-2,3-dihydro-1H-indene-1,3-dione], the IC50 worked out at 3 µM. Moreover, under setting [1], the inhibition at 1 µM was found to be 38% and the inhibition at 3 µM was determined as 41%.

As to `CSCCC(=O)C1C(=O)c2ccc(S(=O)(=O)c3ccc4c(c3)C(=O)C(C(=O)CCSC)C4=O)cc2C1=O` (stereo not drawn) [Example 278, 2-[3-(methylsulfanyl)propanoyl]-5-({2-[3-(methylsulfanyl)propanoyl]-1,3-dioxo-2,3-dihydro-1H-inden-5-yl}sulfonyl)-2,3-dihydro-1H-indene-1,3-dione], the IC50 amounted to 3 µM. Besides, under setting [1], the inhibition at 1 µM worked out at 1% and the inhibition at 3 µM worked out at 18%.

Values taken from patent US20250281424A1 (New York Blood Center, Inc, priority 2020, published 2025).
